Experiments:
hRSV/A/Long = assay: RSV infection in cotton rats: virus titre in lung (plaque assay); assay type: in vivo, Sigmodon hispidus cotton rats; conditions: for Virus titre in lung, Geometric mean: cotton rats, intranasal, day 4
RSV A2 = assay: Virus titre in air-liquid interface (ALI) cultured bronchial epithelial cells (plaque assay); assay type: cell-based, human respiratory syncytial virus; conditions: for Effect on RSV titre (in words): early intervention
Experimental: Assessment of Virus Titre in Air-liquid Interface (ALI) Cultured Bronchial Epithelial Cells
ALI cultured human bronchial epithelial cells were sourced from Epithelix Sarl (Geneva, Switzerland) and maintained by changing the basal media every 3-4 days, whilst the apical surface was washed once weekly with PBS. On Day 0, the apical surface of each well was washed once with sterile PBS (300 μL) and the inserts were transferred to new 24-well plates containing fresh MucilAir culture medium (780 μL; EP04MM). RSV A2 (50 μL; diluted in MucilAir culture medium to give a final MOI of 0.01) was added to cells for one hr (37° C./5% CO2). For the purposes of standardizing MOI calculations, each MucilAir insert was estimated to contain 2×10^5 apical facing cells per well. Virus inoculum was removed with a pipette and inserts were washed twice with sterile PBS (300 μL).
Sampling was conducted by adding sterile PBS (300 μL) to the apical surface of each well for 5 min. The apical sample was then removed and transferred to tubes containing 50% sucrose dissolved in PBS (100 μL) before being stored at −80° C. This harvesting procedure was repeated daily beginning on day 0 and concluding on day 7.
ALI cultures were dosed apically with test compound on days 0-7 for “early intervention” protocols, or days 3-7 for “late intervention” protocols. The test compound (50 μL in 0.5% DMSO/PBS) was added to the apical surface and incubated (37° C./5% CO2) for 1 hr before being removed. Vehicle treatments (0.5% DMSO/PBS) were performed on the corresponding apical surfaces to ensure each well received the same number of manipulations. On day 5, the basal media was removed from each well and replenished with fresh MucilAir culture media as a necessary maintenance step for ALI culture cells.
Virus titre was quantified by plaque assay. HEp2 cells were grown in 24-well plates (Corning) for 48 hr prior to infection in DMEM containing 10% FBS until they attained 100% confluency. Collected samples were thawed at RT and ten-fold serial dilutions were prepared in serum-free DMEM. The growth medium from HEp2 cells was aspirated and replaced with 300 μL of serially diluted virus collections and left to infect at 37° C./5% CO2 for 4 hr. The infectious media was aspirated and replaced with Plaque Assay Overlay (500 μL; 1% methylcellulose in MEM, 2% FBS, 1% Pen Strep, 0.5 μg/mL amphotericin B), and left for 7 days at 37° C./5% CO2. Cells were fixed with ice-cold methanol for 10 min and blocked with 5% powdered milk (Marvel) in 0.05% PBS-tween (‘blocking buffer’) for 1 hr at RT. Anti-RSV F-protein antibody (2F7; Abcam: ab43812) was diluted to a 1:100 concentration in blocking buffer and added to cells for 1 hr at RT with shaking. Cells were washed using PBS and incubated with the secondary antibody (HRP conjugated goat anti-mouse secondary antibody (Dako P044701-2) diluted in 1:400 with blocking buffer) for 1 hr at RT with shaking. The secondary antibody solution was removed and cells were washed with PBS before the metal-enhanced development substrate DAB was prepared in ultra-pure water (according to manufacturer's instructions). Each well received 300 μL of development substrate (sigmaFAST D0426) until plaques were visible. Plaques were counted by eye and confirmed using light microscopy, allowing the calculation of plaque forming units per mL.

## Cc1cnc(N2CC3(CCOCC3)C2)c(C(=O)Nc2ccc(C(=O)N3CCc4cc(C(=O)Nc5c(C)cccc5F)sc4-c4ccccc43)cc2)c1 [Example 5, N-(2-Fluoro-6-methylphenyl)-6-(4-(5-methyl-2-(7-oxa-2-azaspiro[3.5]nonan-2-yl)nicotinamido)benzoyl)-5,6-dihydro-4H-benzo[b]thieno[2,3-d]azepine-2-carboxamide]
hRSV/A/Long; RSV A2 infected cotton rats
  Effect on virus titre in the lungs (in words): completely inhibited virus titre
hRSV/A/Long; Drug Conc 1.0 mg/mL
  Virus titre in lung, Geometric mean: 4.5 log, PFU/lung
hRSV/A/Long; Drug Conc 3.3 mg/mL, LOQ 2.3
  Virus titre in lung, Geometric mean: <2.3^2 log, PFU/lung
hRSV/A/Long; hRSV/A/Long infected cotton rats on day4
  Effect on virus titre in lung homogenates (in words): potent dose-dependent inhibition of virus titre
RSV A2; early intervention (days 0-7), 0.004 mg/mL, day 0
  Virus titre in apical wash, geometric mean ± SD: 0.0 ± 0.0 log PFU/mL
RSV A2; early intervention (days 0-7), 0.004 mg/mL, day 1
  Virus titre in apical wash, geometric mean ± SD: 0.61 ± 0.86 log PFU/mL
RSV A2; early intervention (days 0-7), 0.004 mg/mL, day 2
  Virus titre in apical wash, geometric mean ± SD: 3.1 ± 0.22 log PFU/mL
RSV A2; early intervention (days 0-7), 0.004 mg/mL, day 3
  Virus titre in apical wash, geometric mean ± SD: 3.9 ± 0.18 log PFU/mL
RSV A2; early intervention (days 0-7), 0.004 mg/mL, day 4
  Virus titre in apical wash, geometric mean ± SD: 4.1 ± 0.16 log PFU/mL
RSV A2; early intervention (days 0-7), 0.004 mg/mL, day 5
  Virus titre in apical wash, geometric mean ± SD: 4.2 ± 0.12 log PFU/mL
RSV A2; early intervention (days 0-7), 0.004 mg/mL, day 6
  Virus titre in apical wash, geometric mean ± SD: 3.2 ± 0.26 log PFU/mL
RSV A2; early intervention (days 0-7), 0.004 mg/mL, day 7
  Virus titre in apical wash, geometric mean ± SD: 2.8 ± 0.43 log PFU/mL
RSV A2; early intervention (days 0-7), 0.02 mg/mL, day 0
  Virus titre in apical wash, geometric mean ± SD: 0.0 ± 0.0 log PFU/mL
RSV A2; early intervention (days 0-7), 0.02 mg/mL, day 1
  Virus titre in apical wash, geometric mean ± SD: 0.0 ± 0.0 log PFU/mL
RSV A2; early intervention (days 0-7), 0.02 mg/mL, day 2
  Virus titre in apical wash, geometric mean ± SD: 0.0 ± 0.0 log PFU/mL
RSV A2; early intervention (days 0-7), 0.02 mg/mL, day 3
  Virus titre in apical wash, geometric mean ± SD: 0.0 ± 0.0 log PFU/mL
RSV A2; early intervention (days 0-7), 0.02 mg/mL, day 4
  Virus titre in apical wash, geometric mean ± SD: 1.4 ± 1.1 log PFU/mL
RSV A2; early intervention (days 0-7), 0.02 mg/mL, day 5
  Virus titre in apical wash, geometric mean ± SD: 1.9 ± 1.4 log PFU/mL
RSV A2; early intervention (days 0-7), 0.02 mg/mL, day 6
  Virus titre in apical wash, geometric mean ± SD: 0.0 ± 0.0 log PFU/mL
RSV A2; early intervention (days 0-7), 0.02 mg/mL, day 7
  Virus titre in apical wash, geometric mean ± SD: 0.0 ± 0.0 log PFU/mL
RSV A2; early intervention (days 0-7), 0.1 mg/mL, day 0
  Virus titre in apical wash, geometric mean ± SD: 0.0 ± 0.0 log PFU/mL
RSV A2; early intervention (days 0-7), 0.1 mg/mL, day 1
  Virus titre in apical wash, geometric mean ± SD: 0.0 ± 0.0 log PFU/mL
RSV A2; early intervention (days 0-7), 0.1 mg/mL, day 2
  Virus titre in apical wash, geometric mean ± SD: 0.0 ± 0.0 log PFU/mL
RSV A2; early intervention (days 0-7), 0.1 mg/mL, day 3
  Virus titre in apical wash, geometric mean ± SD: 0.0 ± 0.0 log PFU/mL
RSV A2; early intervention (days 0-7), 0.1 mg/mL, day 4
  Virus titre in apical wash, geometric mean ± SD: 0.0 ± 0.0 log PFU/mL
RSV A2; early intervention (days 0-7), 0.1 mg/mL, day 5
  Virus titre in apical wash, geometric mean ± SD: 0.0 ± 0.0 log PFU/mL
RSV A2; early intervention (days 0-7), 0.1 mg/mL, day 6
  Virus titre in apical wash, geometric mean ± SD: 0.0 ± 0.0 log PFU/mL
RSV A2; early intervention (days 0-7), 0.1 mg/mL, day 7
  Virus titre in apical wash, geometric mean ± SD: 0.0 ± 0.0 log PFU/mL
RSV A2; 0.1 μg/mL over 7 days
  Effect on RSV titre (in words): complete inhibition
RSV A2; apical well daily from day 0 to day 7
  Effect on RSV titre (in words): concentration dependent inhibition
RSV A2; early or late stage intervention
  Effect on virus titre (in words): completely inhibited virus titre
RSV A2; late intervention (days 3-7), 0.02 mg/mL, day 0
  Virus titre in apical wash, geometric mean ± SD: 0.0 ± 0.0 log PFU/mL
RSV A2; late intervention (days 3-7), 0.02 mg/mL, day 1
  Virus titre in apical wash, geometric mean ± SD: 1.6 ± 1.1 log PFU/mL
RSV A2; late intervention (days 3-7), 0.02 mg/mL, day 2
  Virus titre in apical wash, geometric mean ± SD: 3.9 ± 0.15 log PFU/mL
RSV A2; late intervention (days 3-7), 0.02 mg/mL, day 3
  Virus titre in apical wash, geometric mean ± SD: 5.2 ± 0.04 log PFU/mL
RSV A2; late intervention (days 3-7), 0.02 mg/mL, day 4
  Virus titre in apical wash, geometric mean ± SD: 3.8 ± 0.50 log PFU/mL
RSV A2; late intervention (days 3-7), 0.02 mg/mL, day 5
  Virus titre in apical wash, geometric mean ± SD: 3.6 ± 0.13 log PFU/mL
RSV A2; late intervention (days 3-7), 0.02 mg/mL, day 6
  Virus titre in apical wash, geometric mean ± SD: 0.0 ± 0.0 log PFU/mL
RSV A2; late intervention (days 3-7), 0.02 mg/mL, day 7
  Virus titre in apical wash, geometric mean ± SD: 1.3 ± 0.94 log PFU/mL
RSV A2; late intervention (days 3-7), 0.1 mg/mL, day 0
  Virus titre in apical wash, geometric mean ± SD: 0.0 ± 0.0 log PFU/mL
RSV A2; late intervention (days 3-7), 0.1 mg/mL, day 1
  Virus titre in apical wash, geometric mean ± SD: 2.3 ± 0.35 log PFU/mL
RSV A2; late intervention (days 3-7), 0.1 mg/mL, day 2
  Virus titre in apical wash, geometric mean ± SD: 4.1 ± 0.14 log PFU/mL
RSV A2; late intervention (days 3-7), 0.1 mg/mL, day 3
  Virus titre in apical wash, geometric mean ± SD: 5.0 ± 0.14 log PFU/mL
RSV A2; late intervention (days 3-7), 0.1 mg/mL, day 4
  Virus titre in apical wash, geometric mean ± SD: 3.8 ± 0.31 log PFU/mL
RSV A2; late intervention (days 3-7), 0.1 mg/mL, day 5
  Virus titre in apical wash, geometric mean ± SD: 1.7 ± 1.2 log PFU/mL
RSV A2; late intervention (days 3-7), 0.1 mg/mL, day 6
  Virus titre in apical wash, geometric mean ± SD: 0.0 ± 0.0 log PFU/mL
RSV A2; late intervention (days 3-7), 0.1 mg/mL, day 7
  Virus titre in apical wash, geometric mean ± SD: 0.0 ± 0.0 log PFU/mL
RSV A2; late intervention, administered from day 3, days 6 and 7 post infection
  Effect on virus titre (in words): dramatic reduction of virus titre
